Experimental findings from patent US8785443B2, “Methods of using prodrugs of methyl hydrogen fumarate and pharmaceutical compositions thereof” (XenoPort, Inc., priority 2008, dated 2014) are described below.

A value given as a limit tells only on which side of the number the result lay.

A short description of series [1]: Enzymatic stability of prodrug in rat liver S9. The format is in vitro ADME. The following applies: rat liver S9 0.5 mg/mL, pH 7.4, 1 mM NADPH, 37° C.; for half-life at 40 µM: read-out: T1/2 Parent Prodrug Cleavage (min) rLiver. As to the method: Rat liver S9 (XenoTech, Lenexa, Kans.; R1000.59, 20 mg/mL) was diluted to 0.5 mg mL in 0.1 M potassium phosphate buffer at pH 7.4 and 1 mM NADPH cofactor.
(§1) The enzymatic stability assays for prodrug in CaCo2 S9, rat liver S9, rat plasma, pig pancreatin, and rat colonic was were performed using the following procedure. Ninety (90) μL of lysate is aliquoted to designated tubes on a cluster plates. The lysate was preincubated for 10 min at 37° C. With the exception of the t(0) time point, 10 μL of a 400 μM solution of test compound in 0.1M Tris buffer, pH 7.4 was added to multiple wells representing different incubation times. The samples were incubated at 37° C. At each time point, the reaction was quenched by adding 300 μL of 100% ethanol. The samples were thoroughly mixed, the tubes transferred to a V-bottom plate, and stored at −20° C. For the t(0) time point, the lysate was quenched with 300 μL of ice cold 100% ethanol, thoroughly mixed, 10 μL of 400 μM test compound was added and mixed, and the sample tube transferred to a V-bottom plate and stored at −20° C. For analysis, 180 μL from each sample was transferred to a 96 well V-bottom plate and sealed. After all time points were collected, the plate was centrifuged for 10 min at 5600 rpm at 4° C. One-hundred fifty (150) μL from each well was then transferred to a 96 well round bottom plate. Samples were analyzed using LC/MS/MS to determine the concentrations of prodrug and parent drug.
(§2) LC-MS/MS analysis for MHF was performed using an API 4000 equipped with an Agilent 1100 HPLC and a Leap Technologies autosampler. A HPLC Phenomenex Onyx Monolithic C18 (CHO-7644) column at a temperature of 35° C., flow rate of 2.0 mL/min, injection volume of 30 μL, and a 3 min run time was used. Mobile phase AI was 0.1% formic acid in water and Mobile phase AII was 0.1% formic acid in acetonitrile. The gradient was 98% AI/2% AII at time 0; 98% AI/2% AII at time 0.1 mM; 5% AI/95% AII at time 1.4 mM; 5% AI/95% AII at time 2.2 min; 98% AI/2% AII at time 2.3 mM; and 98% AI/2% AII at time 3.0 min MHF content was determined using negative ion mode (Q1 128.94; Q2 71).

The nature of the next series: pH 8.0 buffer stability. The format is physicochemical. The following applies: 150 mM NaH2PO4 buffer pH 8.0, 60 min, 37° C. As to the method: For the pH 8.0 stability studies, 190 μL of 150 mM NaH2PO4 buffer pH 8.0 was added to each sample tube. Ten (10) μL of 20 mM test compound was added to each tube and mixed. The samples were incubated for 60 min at 37° C. Following incubation, the samples were transferred to room temperature and 800 μL of 50% ACN in water was added to each tube. Samples were analyzed using LC/MS/MS to determine the concentrations of prodrug and parent drug.
as §2

A short description of series [2]: Enzymatic stability of prodrug in porcine pancreatin. The format is in vitro ADME. To be noted: porcine pancreatin 10 mg/mL, 0.1M Tris pH 7.4, 37° C.; for half-life at 40 µM: pig, read-out: T1/2 Parent Prodrug Cleavage (min) pPancreatin. As to the method:
Porcine pancreatin (Sigma Aldrich, St. Louis, Mo.; P1625-100G) was diled to 10 mg/mL in 0.1M Tris buffer, pH 7.4.
as §1, §2

Series [3] can be described thus: Enzymatic stability of prodrug in rat plasma. The format is in vitro ADME. To be noted: 37° C.; for half-life at 40 µM: read-out: T1/2 Parent Prodrug Cleavage (min) rPlasma. As to the method:
Rat plasma (Pel-Freez® Biologicals, Rogers, Ark.; 36150) was used as obtained from the supplier.
as §1, §2

Series [4] can be described thus: Enzymatic stability of prodrug in rat colonic wash. The format is in vitro ADME. The following applies: rat colonic wash undiluted, 37° C.; for half-life at 40 µM: pH 7.4, read-out: T1/2 Parent Prodrug Cleavage (min) rColonic Wash. As to the method: To prepare the rat colonic wash, the colon between the ceacum and rectum was resected from a euthanized rat. Five to 10 mL of PBS pH 7.4 buffer (depending on the weight of the rat) was flushed into the lumen of the large intestine and collected into a 250 mL glass beaker at 0° C. (ice bath). The colonic wash was transferred into 10 mL conical tubes using a 10 mL syringe fitted with a filter. Samples of 0.5 mL colonic wash are stored at −80° C. until the time of use. Colonic was used without dilution.
as §1, §2

The nature of series [5]: Enzymatic stability of prodrug in CaCo2 S9 homogenate. The format is in vitro ADME. To be noted: CaCo2 S9 0.5 mg/mL, 0.1M Tris pH 7.4, 37° C.; for half-life at 40 µM: human, Caco-2 cell S9 homogenate, read-out: T1/2 Parent Prodrug Cleavage (min) CaCo2. As to the method: CaCo2 S9 homogenate was prepared using the following procedure. CaCo2 cells were grown in culture for 21 days prior to harvesting. Culture medium was removed from the culture vessel and the monolayer was rinsed twice with 10-15 mL chilled PBS buffer. PBS buffer (7-10 mL) was added to the flask and the cells scraped from the growth surface and transferred to a centrifuge tube. The cells were pelleted by centrifugation at 1500 rpm for 5 min at 4° C. The supernatant was removed and the cell pellet washed with ice cooled PBS and repelleted by centrifugation. The supernatant was removed and the pellet resuspended in cell lysis buffer (0.15M KCl and 10 mM sodium phosphate buffer, pH 7.4). Cells were lysed by sonication at 4° C. using a probe sonicator. The lysed cells were then transferred to vials and centrifuged at 1600 rpm for 10 min at 4° C. to remove intact cells, nuclei, and large cellular debris. The supernatant was removed and transferred to a tube for centrifugation at 8600 rpm for 20 min at 4° C. After centrifugation, the resulting supernatant representing the CaCo2 cell homogenate S9 fraction was carefully removed and aliquoted into vials for storage at −80° C. until the time of use. At the time of use, CaCo2 S9 lysate was diluted to 0.5 mg/mL in 0.1M Tris buffer, pH 7.4.
as §1, §2

On to `COC(=O)/C=C/C(=O)OCC(=O)N(C)OC` [Compound 10, (N-Methoxy-N-methylcarbamoyl)methyl methyl (2E) but-2-ene-1,4-dioate], for which the half-life at 40 µM is 1 min in series [1]; 4 min in series [2]; 1 min in series [3]; > 60 min in series [4]; 3 min in series [5]. Further, in the series “pH 8.0 buffer stability”, the “pH 8.0: Percent DMF or prodrug remaining after 60 minutes” value is 42%.

By melting point is commonly meant the temperature, or range, at which the solid turns liquid. For `COC(=O)/C=C/C(=O)OCC(=O)N1CCOCC1` [Compound 3, Methyl 2-morpholin-4-yl-2-oxoethyl (2E)but-2-ene-1,4-dioate], the melting point was in the range of 124 to 126 °C. In addition, the half-life at 40 µM in series [1] stood at 22 min. The “pH 8.0: Percent DMF or prodrug remaining after 60 minutes” value in “pH 8.0 buffer stability” is reported as 53%. The half-life at 40 µM in series [2] turned out to be 8 min. Besides, the half-life at 40 µM in series [3] was 1 min. The half-life at 40 µM in series [4] was > 60 min. The half-life at 40 µM in series [5] amounted to 56 min.

Regarding `CCN(CC)C(=O)COC(=O)/C=C/C(=O)OC` [Compound 1, (N,N-Diethylcarbamoyl)methyl methyl (2E)but-2-ene-1,4-dioate], the half-life at 40 µM in series [1] was 2 min; in series [2], 8 min; in series [3], 1 min; in series [4], > 60 min; in series [5], 8 min. Moreover, the “pH 8.0: Percent DMF or prodrug remaining after 60 minutes” value in the series “pH 8.0 buffer stability” was 63%.

`COC(=O)/C=C/C(=O)OCC(=O)NCc1ccccc1` [Compound 2, Methyl [N-benzylcarbamoyl]methyl (2E)but-2-ene-1,4-dioate]: the half-life at 40 µM is 9 min in series [1]; 1 min in series [2]; 9 min in series [3]; 25 min in series [4]; 4 min in series [5]. The “pH 8.0: Percent DMF or prodrug remaining after 60 minutes” value in the series “pH 8.0 buffer stability” was 17%.

As for `COCCN(CCOC)C(=O)COC(=O)/C=C/C(=O)OC` [Compound 11], the melting point was 79 to 82 °C.

With “Methyl(N-(1,3,4-thiadiazol-2-yl)carbamoyl)methyl(2E)but-2ene-1,4-dioate [Compound 8]”, the “T1/2 Parent Prodrug Cleavage (min) rLiver” value in series [1] worked out at 23 min. Moreover, the “pH 8.0: Percent DMF or prodrug remaining after 60 minutes” value in “pH 8.0 buffer stability” amounted to 141%. Further, the “T1/2 Parent Prodrug Cleavage (min) pPancreatin” value in series [2] is 15 min. Further, the “T1/2 Parent Prodrug Cleavage (min) rPlasma” value in series [3] was 6 min. Also, in series [4], the “T1/2 Parent Prodrug Cleavage (min) rColonic Wash” value stood at 27 min. Further, the “T1/2 Parent Prodrug Cleavage (min) CaCo2” value in series [5] came out at 52 min.

Compound `COC(=O)/C=C/C(=O)O[C@@H](C)C(=O)N1CCOCC1` [Compound 31, (1S)-1-Methyl-2-morpholin-4-yl-2-oxoethyl methyl (2E)but-2-ene-1,4-dioate] yielded a melting point of 79 to 82 °C.

Take `COCCNC(=O)COC(=O)/C=C/C(=O)OC` [Compound 5, [N-(2-Methoxyethyl)carbamoyl]methyl methyl (2E)but-2-ene-1,4-dioate]: the half-life at 40 µM in series [1] is 10 min; in series [2], 3 min; in series [3], 2 min; in series [4] it was > 60 min; in series [5], 30 min. In “pH 8.0 buffer stability”, the “pH 8.0: Percent DMF or prodrug remaining after 60 minutes” value is on record as 53%.

With `CCCCNC(=O)COC(=O)/C=C/C(=O)OC` [Compound 4, (N-Butylcarbamoyl)methyl methyl (2E)but-2-ene-1,4-dioate], the half-life at 40 µM was found to be 2 min in series [1]; 2 min in series [2]; 1 min in series [3]; 33 min in series [4]; 5 min in series [5]. In addition, the “pH 8.0: Percent DMF or prodrug remaining after 60 minutes” value in “pH 8.0 buffer stability” was found to be 40%.

Take `COC(=O)/C=C/C(=O)OC(C)C(=O)N1CCOCC1` (stereo not shown) [Compound 28, Methyl 1-methyl-2-morpholin-4-yl-2-oxoethyl (2E)but-2-ene-1,4-dioate]: the melting point lay in the range of 70 to 73 °C.

Consider `COC(=O)/C=C/C(=O)OCC(=O)N(C)C` [Compound 9], for which the half-life at 40 µM in series [1] was 6 min; in series [2], 4 min; in series [3], 1 min; in series [4], > 60 min; in series [5], 8 min. In addition, the “pH 8.0: Percent DMF or prodrug remaining after 60 minutes” value in “pH 8.0 buffer stability” was 47%.
